Test results: patent publication US11491165B2 (Kinoxis Therapeutics Pty Ltd, priority 2016, dated 2022)

Experiments:
[1] = molecular target: T1, oxytocin receptor (OXTR), hOTR (Homo sapiens, UniProt P30559); assay: Competition radioligand binding, [3H]-oxytocin, OTR-expressing HEK293 membranes; conditions: [3H]-oxytocin 10 nM, 90 min 4 °C
T1 construct: expressed in transfected cells
T1 sequence (P30559 1-389): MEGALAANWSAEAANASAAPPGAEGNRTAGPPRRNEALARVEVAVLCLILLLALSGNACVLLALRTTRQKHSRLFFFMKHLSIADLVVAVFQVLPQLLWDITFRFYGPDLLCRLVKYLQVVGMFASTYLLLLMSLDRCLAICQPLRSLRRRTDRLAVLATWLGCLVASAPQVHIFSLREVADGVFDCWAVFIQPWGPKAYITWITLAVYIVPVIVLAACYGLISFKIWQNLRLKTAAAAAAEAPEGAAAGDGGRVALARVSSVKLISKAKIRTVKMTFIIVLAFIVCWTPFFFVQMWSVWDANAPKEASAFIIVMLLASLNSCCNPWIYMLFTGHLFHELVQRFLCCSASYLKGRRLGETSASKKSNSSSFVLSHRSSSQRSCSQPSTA
Procedure: (§1) Human embryonic kidney cells (HEK-293) transfected to stably express untagged hOTR and V1aR using the Flp-In™ T-REx™ system (Life Technologies, Carlsbad, Calif. USA) were established as reported in Jorgensen et al., 2016 (the entire disclosure of which is hereby incorporated by reference). Cells were subsequently maintained in 10% DMEM containing hygromycin (80 μg/ml), penicillin (100 U/ml), streptomycin (0.1 mg/ml) and blasticidine S hydrochloride (15 μg/ml).
(§2) To induce receptor expression, cells were incubated with tetracycline (2 μg/mL) for 48 h. PBS with 5 mM EDTA (pH 7.4) was used to detach OTR and V1aR-expressing HEK293 cells from culture flasks. Harvested cells were centrifuged at 1200 g for 5 min and were resuspended in homogenization buffer (50 mM HEPES, 5 mM EDTA, 5 mM MgCl2; pH 7.4) prior to homogenization using an Ultra-Turrax homogeniser (IKA, Wilmington, N.C., USA). Homogenates were centrifuged three times for 30 min at 48.000 g, 4° C. for 30 min and membrane pellets resuspended in 50 mM Tris HCl, 5 mM MgCl2 (pH 7.4). A bicinchoninic acid assay was used according to the manufacturer's protocol (Bio-Rad, Hercules. Calif., USA) to measure final protein concentration. Membranes were stored at −80° C. until use in competition radioligand binding studies.
(§3) Reactions were incubated for 90 min at 4° C. to reach equilibrium, and terminated by rapid filtration over glass fibre filters (Whatman GF/A […]; Millipore, Darmstadt, Germany), and washing with ice-cold reaction buffer. Filters were dried, then incubated with Microscint 0 (Perkin Elmer) for 30 min before radioactivity was detected with a Microbeta2 2450 microplate-reader (Perkin Elmer). […] Specific binding in the presence of compounds was expressed as a percentage of specific binding in the presence of vehicle control. A sum-of-squares F-test was used to compare the goodness of fit of one-site, two-site and sigmoidal with variable hill slope binding models, and to calculate Ki's using Graphpad Prism (Graphpad Software, La Jolla, Calif., USA).

[2] = molecular target: T2, vasopressin 1a receptor (V1aR) (Homo sapiens, UniProt P37288); assay: Competition radioligand binding, [3H]-vasopressin, V1aR-expressing HEK293 membranes; conditions: [3H]-vasopressin 2 nM, 90 min 4 °C
T2 construct: expressed in transfected cells
Procedure: as §1, §2, §3

[3] = molecular target: T2, vasopressin 1a receptor (V1aR); assay: IP1 accumulation assay, V1aR-expressing HEK-293 cells (agonist and antagonist assessment); format: cell-based; conditions: for EC50: agonist assessment, IP1, 1 h; for IC50: antagonist assessment vs AVP 25 nM (~EC70), IP1
Procedure: Cells were subsequently maintained in 10% DMEM containing hygromycin (80 μg/ml), penicillin (100 U/ml), streptomycin (0.1 mg/ml) and blasticidine S hydrochloride (15 μg/ml).
Cells were incubated in tetracycline (2 μg/mL) for 48 h to induce receptor expression. Intracellular IP1 levels induced by activation of the Gq protein coupled to the OTR and V1aR was indexed using the HTRF IP-One kit (CisBio International, Bedford, Mass., USA), according to manufacturer's protocol. For agonist assessment, cells were incubated with logarithmically-spaced concentrations of compounds (1 nM-100 μM) for 1 h prior to the addition of Ab-Cryptate and IP1-d2 for 1 h. The contents of each well were transferred to a white-walled proxy plate (Perkin Elmer) and fluorescence read using a Pherastar Microplate reader (BMG Labtech, Cary, N.C., USA). […] IP1 levels in the presence of compounds and OT or AVP were expressed as a percentage of levels seen with OT or AVP in the presence of vehicle control. Concentration response curves for OT and AVP were determined after 5 min incubation in drug or vehicle, and the data fitted using GraphPad PRISM to a 4-parameter logistic equation of the form y=Min+(Max−Min)/(1+10^((logEC50−X)*n)) where X is drug concentration and n is the H-ill slope. Data represent the mean±s.d. of at least 3 independent experiments, each in duplicate.

[4] = molecular target: T1, oxytocin receptor (OXTR), hOTR; assay: IP1 accumulation assay, OTR-expressing HEK-293 cells (agonist and antagonist assessment); format: cell-based; conditions: for Emax: HEK293, read-out: OXTR Emax (% OXT); for EC50 (OXTR agonist potency, mean ± s.d.) / EC50: agonist assessment; for EC50 (OXTR agonist potency, mean ± s.d.) / IC50: IP1; for EC50: IP1, 1 h; for IC50: antagonist assessment vs OT 30 nM (~EC70); for OV function: ratio of OXTR functional potency to V1aR functional potency, 'OT only' = function at OXTR only
Procedure: as §1
OTR or V1aR-expressing HEK-293 cells were seeded onto poly-L-lysine (100 μg/ml)-coated 384-well plates at a density of 8.75×10^3 cells per well. Cells were incubated in tetracycline (2 μg/mL) for 48 h to induce receptor expression. Intracellular IP1 levels induced by activation of the Gq protein coupled to the OTR and V1aR was indexed using the HTRF IP-One kit (CisBio International, Bedford, Mass., USA), according to manufacturer's protocol. For agonist assessment, cells were incubated with logarithmically-spaced concentrations of compounds (1 nM-100 μM) for 1 h prior to the addition of Ab-Cryptate and IP1-d2 for 1 h. The contents of each well were transferred to a white-walled proxy plate (Perkin Elmer) and fluorescence read using a Pherastar Microplate reader (BMG Labtech, Cary, N.C., USA). For antagonist assessment, cells were incubated an ˜EC70 concentration of OT (30 nM) or AVP (25 nM) mixed with compounds (1 nM-100 μM) or vehicle control for 1 h. IP1 levels in the presence of compounds and OT or AVP were expressed as a percentage of levels seen with OT or AVP in the presence of vehicle control. Concentration response curves for OT and AVP were determined after 5 min incubation in drug or vehicle, and the data fitted using GraphPad PRISM to a 4-parameter logistic equation of the form y=Min+(Max−Min)/(1+10^((logEC50−X)*n)) where X is drug concentration and n is the H-ill slope. Data represent the mean±s.d. of at least 3 independent experiments, each in duplicate.

T2 sequence (P37288 whole entry): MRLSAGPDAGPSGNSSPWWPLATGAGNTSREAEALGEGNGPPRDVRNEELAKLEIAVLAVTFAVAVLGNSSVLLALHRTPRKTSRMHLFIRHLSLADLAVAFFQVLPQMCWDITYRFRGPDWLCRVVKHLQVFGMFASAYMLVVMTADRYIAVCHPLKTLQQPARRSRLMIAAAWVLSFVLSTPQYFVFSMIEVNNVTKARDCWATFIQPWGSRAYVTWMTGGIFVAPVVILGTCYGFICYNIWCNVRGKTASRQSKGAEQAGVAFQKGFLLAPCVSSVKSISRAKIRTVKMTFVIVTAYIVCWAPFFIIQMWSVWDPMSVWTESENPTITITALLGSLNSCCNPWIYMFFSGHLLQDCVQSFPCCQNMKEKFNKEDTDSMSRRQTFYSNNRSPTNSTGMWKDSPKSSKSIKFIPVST

Row | SMILES | Ki [1] | Ki [2] | melting point | EC50 [3] | IC50 [3] | Emax [4] | EC50 (OXTR agonist potency, mean ± s.d.) [4] | EC50 [4] | IC50 [4] | OV function [4]
1 | Cn1ncc2c1Nc1ccccc1N(S(=O)(=O)c1ccc(Cl)cc1)C2 [WJ0633, 5-((4-Chlorophenyl)sulfonyl)-1-methyl-1,4,5,10-tetrahydrobenzo[b]pyrazolo[3,4-e][1,4]diazepine] | > 10 µM | > 10 µM | 206 to 208 °C | > 10 µM | > 10 µM | – | – | > 10 µM | > 10 µM | –
2 | Cn1ncc2c1Nc1ccccc1N(C(=O)c1ccncc1)C2 [WJ0757, (1-Methyl-4,10-dihydrobenzo[b]pyrazolo[3,4-e][1,4]diazepin-5 (1H)-yl)(pyridin-4-yl)methanone] | > 10 µM | 0.751 ± 0.197 µM | 267 to 269 °C (dec.) | > 10 µM | > 10 µM | – | – | > 10 µM | > 10 µM | –
3 | Cc1ccc(CN2Cc3cnn(C)c3Nc3ccccc32)cc1C [WJ05105, 5-(3,4-Dimethylbenzyl)-1-methyl-1,4,5,10-tetrahydrobenzo[b]pyrazolo[3,4-e][1,4]diazepine] | > 10 µM | > 10 µM | 171 to 173 °C | > 10 µM | > 10 µM | – | – | > 10 µM | > 10 µM | –
4 | Cn1ncc2c1Nc1ccccc1N(C(=O)C13CC4CC(CC(C4)C1)C3)C2 [WJ0687, ((3r,5r,7r)-Adamantan-1-yl)(1-methyl-4,10-dihydrobenzo[b]pyrazolo[3,4-e][1,4]diazepin-5 (1H)-yl)methanone] | > 10 µM | 0.377 ± 0.106 µM | 283 to 285 °C | > 10 µM | > 10 µM | 33.3% | 0.834 ± 0.0611 µM | 4.88 ± 0.141 µM | – | –
5 | Cn1ncc2c1Nc1ccccc1N(C(=O)C13CC4CC(CC(F)(C4)C1)C3)C2 [WJ0807mF, ((1r,3s,5R,7S)-3-Fluoroadamantan-1-yl)(1-methyl-4,10-dihydrobenzo[b]pyrazolo[3,4-e][1,4]diazepin-5 (1H)-yl)methanone] | > 10 µM | 1.09 ± 0.0583 µM | 266 to 268 °C (dec.) | > 10 µM | > 10 µM | 25.3% | 0.6325 ± 0.148 µM | 2.4 ± 0.652 µM | – | –
6 | Cn1ncc2c1Nc1ccccc1N(C(=O)C1CCCC1)C2 [CAS (KA), cyclopentyl(1-methyl-4,10-dihydrobenzo[b]pyrazolo[3,4-e][1,4]diazepin-5 (1H)-yl)methanone] | > 10 µM | 0.553 ± 0.067 µM | > 300 °C | > 10 µM | > 10 µM | 10% | – | 3.39 ± 0.448 µM | – | <0.33

Now from value to compound:

Row | Ki [1] | Ki [2] | melting point | EC50 [3] | IC50 [3] | Emax [4] | EC50 (OXTR agonist potency, mean ± s.d.) [4] | EC50 [4] | IC50 [4] | OV function [4] | SMILES
7 | > 10 µM | 0.353 µM | 247 to 249 °C (dec.) | > 10 µM | > 10 µM | 9.67% | 0.2421 ± 0.0217 µM | 3.53 ± 0.634 µM | > 10 µM | – | Cn1ncc2c1Nc1ccccc1N(C(=O)c1cccnc1)C2 [WJ0753, (1-Methyl-4,10-dihydrobenzo[b]pyrazolo[3,4-e][1,4]diazepin-5 (1H)-yl)(pyridin-3-yl)methanone]
8 | 0.842 ± 0.288 µM | 0.108 ± 0.0235 µM | 267 to 269 °C (dec.) | > 10 µM | 0.746 ± 0.158 µM | 4.99% | 0.1249 ± 0.0168 µM | 0.338 ± 0.0765 µM | – | 0.45 | COc1cccc(C(=O)N2Cc3cnn(C)c3Nc3ccccc32)c1 [WJ0657, (3-Methoxyphenyl)(1-methyl-4,10-dihydrobenzo[b]pyrazolo[3,4-e][1,4]diazepin-5 (1H)-yl)methanone]
9 | 0.103 ± 0.031 µM | 0.0078 ± 0.0009 µM | 235 to 237 °C | > 10 µM | 1.14 ± 0.165 µM | 11.3% | 0.2837 ± 0.0224 µM | 0.0962 ± 0.0229 µM | – | 0.085 | Cc1ccc(C(=O)N2Cc3cnn(C)c3Nc3ccccc32)cc1F [WJ0683, (3-Fluoro-4-methylphenyl)(1-methyl-4,10-dihydrobenzo[b]pyrazolo[3,4-e][1,4]diazepin-5 (1H)-yl)methanone]
10 | 0.0926 ± 0.01 µM | 0.0046 ± 0.0013 µM | > 300 °C | > 10 µM | 0.205 ± 0.0576 µM | – | – | > 10 µM | 1.76 µM | 8.59 | Cn1ncc2c1Nc1ccccc1N(C(=O)c1cc(O)cc(O)c1)C2 [WJ0623, (3,5-Dihydroxyphenyl)(1-methyl-4,10-dihydrobenzo[b]pyrazolo[3,4-e][1,4]diazepin-5 (1H)-yl)methanone]
11 | 1.08 ± 0.323 µM | 0.236 ± 0.075 µM | – | > 10 µM | > 10 µM | 17% | – | 0.481 ± 0.061 µM | – | <0.04 | Cn1ncc2c1Nc1ccccc1N(C(=O)C1CCCCC1)C2 [CA6 (KA), cyclohexyl(1-methyl-4,10-dihydrobenzo[b]pyrazolo[3,4-e][1,4]diazepin-5 (1H)-yl)methanone]
12 | 0.022 ± 0.008 µM | 0.0018 ± 0.0006 µM | – | > 10 µM | 1.65 ± 0.075 µM | 8% | – | 0.041 ± 0.015 µM | – | 0.02 | CCc1ccc(C(=O)N2Cc3cnn(C)c3Nc3ccccc32)cc1 [TRGA99, (4-ethylphenyl)(1-methyl-4,10-dihydrobenzo[b]pyrazolo[3,4-e][1,4]diazepin-5 (1H)-yl)methanone]
